Source: US11731974B2, “N-acyl-(3-substituted)-(8-substituted)-5,6-dihydro-[1,2,4]triazolo[4,3-a]pyrazines as selective NK-3 receptor antagonists” (Ogeda SA, priority 2013, dated 2023)

Key:
[1] = test system: circulating LH levels; assay: Castrated male rat model, circulating levels of luteinizing hormone (LH); type: in vivo; conditions: single oral dose less than or equal to 30 mg/kg, p<0.05
Method: In Vivo Assay to Assess Compound Activity in Rat (Oral Dosing)
Castrated male rat model to assess the effect of compound of invention on circulating levels of luteinizing hormone (LH)
The effect of compounds of the invention to inhibit luteinizing hormone (LH) secretion is determined by the following biological studies.
In humans and rodents, castration is well-precedented to permit heightened, persistent GnRH signaling and consequent elevation of circulating LH. Thus, a castrated rat model is used to provide a broad index for measurement of LH inhibition as a marker of test compound inhibition of the GnRH signaling pathway.
Castrated adult male Sprague-Dawley (SD) rats (150-175 g) were purchased from Janvier (St Berthevin, France). All animals were housed 2 per cage in a temperature-controlled room (22±2° C.) and 50±5% relative humidity with a 12 hour/12 hour light/dark cycles (lights off at 6 h00 pm). The animals were allowed 3 weeks of postoperative recovery prior to study. Animals were handled on a daily basis. Standard diet and tap water were provided ad libitum. Animal cage litters were changed once a week. On the study day, animals were acclimated to the procedure room for a period of one hour prior to the initiation of the experiment.
Compounds of the invention were formulated in 0.5% methyl cellulose.
After basal sampling (TO) a single dose of compounds of the invention or vehicle was administrated orally to rats. Blood samples were then collected at several time points post dosing (45, 90, 150, 300 and 420 minutes). Blood samples were obtained via tail vein bleed, drawn into EDTA-containing tubes and centrifuged immediately. Plasma samples were collected and stored in a −80° C. freezer until assayed. Serum LH levels were determined using radioimmunoassay kit from RIAZEN—Rat LH, Zentech (Liege, Belgium). Baseline was defined as the initial basal blood sample.

[2] = test system: plasma testosterone; assay: Plasma testosterone in gonad intact male rats; type: in vivo, rat; conditions: 3 mg/kg single oral, vs vehicle, FIG. 1
Method: The study was designed to evaluate the effect of compounds of the invention on testosterone circulating levels following oral administration at 3 mg/kg on SD gonad intact male rats.
(§1) Briefly the experimental methods used for this study were as follows:
Two groups of non-fasted rats (male, Sprague-Dawley, 200 to 225 g; n=4 rats/group) with jugular vein cannulation, were dosed via a single oral administration of compounds of the invention at 3 mg/kg. The control group was dosed with the vehicle. Compounds of the invention were prepared in a dose formulation of pyrogen-free water with 0.5% methylcellulose. Blood samples were collected via the catheter implanted in the jugular vein at pre-determined intervals using EDTA-3K as anti-coagulant. Samples were chilled and rapidly processed by centrifugation to obtain corresponding plasma samples. Testosterone hormone levels were determined by RIA performed on plasma samples collected for all the groups at 5 minutes before administration (basal time), and at 45, 90, 150, 300, 480 minutes and 24 hours after dosing.

[3] = test system: serum TT, LH, FSH in women with PCOS; assay: Phase 2a clinical trial, PolyCystic Ovary Syndrome (PCOS); type: in vivo, human; conditions: 180 mg QD
Method: The Phase 2a trial was double blind and randomized.
Blood draws for LH, FSH and TT were taken every visit between 2 and 8 hours after drug intake (baseline and week 3-6-12). […] These blood draws were the basis for assessing the primary (TT) and secondary (LH, FSH, LH:FSH ratio) endpoints. The primary endpoint of Total Testosterone was measured according to GLP using an LC-MS/MS method.
PCOS is typically characterized by excessive ovarian androgen production, failure of ovulation, and slightly enlarged ovaries with numerous peripheral small follicles that appear as cysts. The disorder is commonly accompanied by infertility. Typically, the clinical features of PCOS are associated with hypersecretion of LH and androgens (TT) but with normal serum concentrations of FSH hormone.
Statistical analyses performed by 2-way ANOVA comparing placebo to treatment.

[4] = test system: body temperature in ovariectomized ewes; assay: In vivo assay in OVX ewes, thermoregulation; parameters: species or system ewe; conditions: 1 mg/kg intravenous
Excerpt: In Vivo Assay in OVX Ewes-Activity in Thermoregulation Experimental Methods: Evaluation of Thermoregulation in OVX Ewe […] After 4 months recovery, animals were acclimatised to housing in single pens for a period of 7 days with ad libitum access to water and […] lucerne hay. One day prior to experimentation, the animals received a jugular vein cannula ([…], Tuta Laboratories, Lane Cove, Australia). The cannula were kept patent with heparinised saline. […] Animals were fed at 12 h00. Rectal temperatures were monitored with a probe at hourly intervals throughout the experiment, starting at 7 h40 and concluding at 15 h40. […] However, this pyrogenic response to feeding in ovarectomized ewes was not observed in any animals treated with compound no 5. […] Graphical data presented as mean±SEM for vehicle-treated versus compound no 5-treated ewes (N=5/group). Statistical analyses performed by 2-way ANOVA followed by Sidak's Multiple Comparisons Test between treatment groups at the indicated time interval, *p<0.05. Conclusions: Ovariectomy in the ewe causes changes in core body temperature considered analogous to menopausal hot flashes ([…], Bryant, & Turner, 2003) to the extent that a transient, pyrogenic response to feeding is observed (Henry, Dunshea, Gould, & Clarke, 2008).

[5] = test system: plasma estradiol; assay: Estradiol circulating level in female rats; type: in vivo, rat; conditions: 10 mg/kg b.i.d. oral, two consecutive estrous cycles, FIG. 3
Method: Effect of compounds of the invention on Estradiol circulating level in female rats. The aim of this study was to evaluate the effect of compounds of the invention on plasma estradiol levels following oral administration at 10 mg/kg (b.i.d.) for a period of 10 days in female rats.
as §1
Two groups of adult, female rats (Sprague-Dawley, ˜320 g) were treated in-phase with their individual estrous cycles. […] Compounds of the invention were prepared in a dose formulation of pyrogen-free water with 0.5% methylcellulose. Estradiol levels were determined for all groups by ELISA performed on plasma samples derived from blood collections taken at 30 minutes before the daily, 9 h30 test article administration on all days presented in FIG. 3.

Row | Structure (SMILES) | circulating LH levels [1] | further results
1 | Cc1nsc(-c2nnc3n2CCN(C(=O)c2ccc(Cl)c(Cl)c2)[C@@H]3C)n1 [Compound 1, (R)-(3,4-dichlorophenyl)(8-methyl-3-(3-methyl-1,2,4-thiadiazol-5-yl)-5,6-dihydro-[1,2,4]triazolo[4,3-a]pyrazin-7(8H)-yl)methanone] | significantly suppressed | 
2 | CCc1nsc(-c2nnc3n2CCN(C(=O)c2ccc(F)cc2)[C@@H]3C)n1 [Compound 2, (R)-(3-(3-ethyl-1,2,4-thiadiazol-5-yl)-8-methyl-5,6-dihydro-[1,2,4]triazolo[4,3-a]pyrazin-7(8H)-yl)(4-fluorophenyl)methanone] | significantly suppressed | 
3 | Cc1nsc(-c2nnc3n2CCN(C(=O)c2ccc(Cl)c(F)c2)[C@@H]3C)n1 [Compound 4, (R)-(4-chloro-3-fluorophenyl)(8-methyl-3-(3-methyl-1,2,4-thiadiazol-5-yl)-5,6-dihydro-[1,2,4]triazolo[4,3-a]pyrazin-7(8H)-yl)methanone] | significantly suppressed | 
4 | Cc1nsc(-c2nnc3n2CCN(C(=O)c2ccc(F)cc2)[C@@H]3C)n1 [Compound 5, (R)-(4-fluorophenyl)(8-methyl-3-(3-methyl-1,2,4-thiadiazol-5-yl)-5,6-dihydro-[1,2,4]triazolo[4,3-a]pyrazin-7(8H)-yl)methanone] | significantly suppressed | plasma testosterone level [2]: significantly suppressed; FSH secretion [3]: preserved; LH [3]: significant decrease; LH:FSH in comparison of placebo [3]: significantly reduced; TT in comparison of placebo [3]: significantly reduced; pyrogenic response to feeding [4]: not observed; estradiol levels [5]: significantly decreased
5 | Cc1nsc(-c2nnc3n2CCN(C(=O)c2ccc(F)c(F)c2F)[C@@H]3C)n1 [Compound 8, (R)-(8-methyl-3-(3-methyl-1,2,4-thiadiazol-5-yl)-5,6-dihydro-[1,2,4]triazolo[4,3-a]pyrazin-7(8H)-yl)(2,3,4-trifluorophenyl)methanone] | significantly suppressed | 
6 | Cc1nsc(-c2nnc3n2CCN(C(=O)c2ccc(F)c(F)c2)[C@@H]3C)n1 [Compound 9, (R)-(3,4-difluorophenyl)(8-methyl-3-(3-methyl-1,2,4-thiadiazol-5-yl)-5,6-dihydro-[1,2,4]triazolo[4,3-a]pyrazin-7(8H)-yl)methanone] | significantly suppressed | 
7 | CCc1noc(-c2nnc3n2CCN(C(=O)c2ccc(F)cc2)[C@@H]3C)n1 [Compound 13, (R)-(3-(3-ethyl-1,2,4-oxadiazol-5-yl)-8-methyl-5,6-dihydro-[1,2,4]triazolo[4,3-a]pyrazin-7(8H)-yl)(4-fluorophenyl)methanone] | significantly suppressed | 
8 | Cc1nsc(-c2nnc3n2CCN(C(=O)c2ccccc2)[C@@H]3C)n1 [Compound 20, (R)-(8-methyl-3-(3-methyl-1,2,4-thiadiazol-5-yl)-5,6-dihydro-[1,2,4]triazolo[4,3-a]pyrazin-7(8H)-yl)(phenyl)methanone] | significantly suppressed | 
9 | CCc1noc(-c2nnc3n2CCN(C(=O)c2ccc(-c4cccs4)cc2)[C@@H]3C)n1 [Compound 30, (R)-(3-(3-ethyl-1,2,4-oxadiazol-5-yl)-8-methyl-5,6-dihydro-[1,2,4]triazolo[4,3-a]pyrazin-7(8H)-yl)(4-(thiophen-2-yl)phenyl)methanone] | significantly suppressed | 
